# Assay results taken from US10266544B2, “Aryl substituted aminomethyl spectinomycin analogs as antibacterial agents” (ST. JUDE CHILDREN'S RESEARCH HOSPITAL, INC., priority 2013, dated 2019).
# Counter-ions that a name gives are not always drawn. Like-named read-outs stand apart in the source and are kept apart here.
# Key:
# Assay type in all cases: cell-based
# [1] = tested on: Pseudomonas aeruginosa (PA01); assay: MIC determination, microbroth dilution
# Bacillus anthracis = assay: microbe, parasite or virus in culture; settings: read-out: MIC B.a.
# [2] = tested on: acinetobacter baumannii (ATCC 19606); assay: MIC determination, microbroth dilution; settings: ATCC19606
# [3] = tested on: Streptococcus pneumoniae clinical isolates representing several serotypes; assay: MIC determination, Streptococcus pneumoniae panel of clinical isolates (Table 7); settings: Streptococcus pneumoniae
# [4] = tested on: M. tuberculosis clinical isolates; assay: microbe, parasite or virus in culture; settings: Mycobacterium tuberculosis
# [5] = tested on: Bacillus anthracis, Sterne 34F2; assay: microbe, parasite or virus in culture; settings: STERNE34F2, read-out: MIC B.a.
# [6] = tested on: Neisseria gonorrhoeae (ATCC 49226); assay: Disc diffusion assay; settings: ATCC49226, 4 μg per disc, read-out: Zone of inhibition N.g.
# [7] = tested on: Proteus vulgaris (ATCC 33420); assay: MIC determination, microbroth dilution; settings: ATCC33420
# Listeria monocytogenes = assay: MIC determination (Table 6)
# [8] = tested on: Haemophilus influenza (ATCC 49247); assay: microbe, parasite or virus in culture
# Yersinia pestis = assay: microbe, parasite or virus in culture; settings: read-out: MIC Y.p.
# [9] = tested on: Burkholderia cepacia (ATCC 25416); assay: MIC determination, microbroth dilution
# Moraxella catarrhalis = assay: MIC determination (Table 6)
# [10] = tested on: Bacillus subtilis (ATCC 23857); assay: MIC determination, microbroth dilution; settings: ATCC23857; Bacillus subtilis (ATCC 23857); read-out: MIC B.s.
# [11] = tested on: live vaccine strain (LVS) of Francisella tularensis; assay: microbe, parasite or virus in culture; settings: Francisella tularensis
# [12] = tested on: Neisseria gonorrhoeae (ATCC 49226); assay: Agar MIC determination (Alamar Blue); settings: ATCC49226, agar MIC, read-out: MIC N.g.
# [13] = tested on: Legionella pneumophila (ATCC 33153); assay: microbe, parasite or virus in culture; settings: ATCC33153, 72 h, read-out: Zone of inhibition L.p.
# [14] = tested on: Neisseria meningitides (ATCC 13077); assay: Disc diffusion assay; settings: ATCC13077, 4 μg per disc, read-out: Zone of inhibition N.m.
# [15] = tested on: Escherichia coli (ATCC 700926); assay: MIC determination, microbroth dilution; settings: ATCC700926; Escherichia coli (ATCC 700926); read-out: MIC E.c.
# [16] = tested on: Streptococcus pneumoniae (R6); assay: MIC determination, microbroth dilution
# E. coli K12 ΔtolC = assay: microbe, parasite or virus in culture; settings: Escherichia coli, read-out: MIC E.c. Δtolc
# [17] = tested on: MRSA, Staphylococcus aureus (NRS70); assay: MIC determination, microbroth dilution; settings: Staphylococcus aureus (NRS70); read-out: MIC MRSA
# [18] = tested on: Proteus mirabilis (ATCC 25933); assay: MIC determination, microbroth dilution; settings: ATCC25933
# [19] = tested on: Klebsiella pneumoniae (ATCC 33495); assay: MIC determination, microbroth dilution; settings: ATCC33495
# [20] = tested on: Enterococcus faecalis (ATCC 33186); assay: MIC determination, microbroth dilution; settings: ATCC33186; Enterococcus faecalis (ATCC 33186); read-out: MIC E.f.
# [21] = tested on: Streptococcus pyogenes (ATCC 700294); assay: MIC determination, microbroth dilution; settings: ATCC700294; Streptococcus pyogenes (ATCC 700294); read-out: MIC S. py.
# [22] = tested on: Staphylococcus aureus (ATCC 29213); assay: MIC determination, microbroth dilution; settings: ATCC29213; Staphylococcus aureus (ATCC 29213); read-out: MIC S.a.
# [23] = tested on: Stenotrophomonas maltophilia (ATCC 13637); assay: MIC determination, microbroth dilution; settings: ATCC13637; Stenotrophomonas maltophilia (ATCC 13637); read-out: MIC S.m.
# [24] = BAA1407, S. pneumoniae BAA-1407, Macrolide Resistant, read-out: MIC BAA-1407
# [25] = S. pneumoniae Daw7, PenG Resistant, read-out: MIC Daw7
# [26] = S. pneumoniae Daw8, PenG Resistant, read-out: MIC Daw8
# [27] = S. pneumoniae Daw9, PenG Resistant, read-out: MIC Daw9
# [28] = S. pneumoniae Daw62, PenG Resistant, read-out: MIC Daw62
# [29] = S. pneumoniae Daw64, PenG Resistant, read-out: MIC Daw64
# [30] = S. pneumoniae OVA6, Macrolide Resistant, read-out: MIC OVA6
# [31] = S. pneumoniae T4X, Drug Susceptible, read-out: MIC T4X
# [32] = ATCC49247, Haemophilus influenza, 4 μg per disc, range of at least two experiments, read-out: Zone of inhibition H.i.
# [33] = Burkholderia cepacia, ATCC25416, read-out: MIC B.c., Burkholderia cepacia (ATCC 25416)
# [34] = Burkholderia cepacia, ATCC25416, read-out: MIC B.c., Burkholderia cepacia, Table 6
# [35] = Streptococcus pneumoniae (R6), read-out: MIC S. pn.
# [36] = Streptococcus pneumoniae, S. pneumoniae R6, Drug Susceptible, read-out: MIC R6
structure (smiles),measurement,setting,value
"CN[C@@H]1[C@H](O)[C@H](NC)[C@H]2O[C@]3(O)[C@H](O[C@@H]2[C@H]1O)O[C@H](C)C[C@@]3(O)CNCc1ccc(OC(F)(F)F)cc1 [compound 11, 3′-(R)-3′-[(4-trifluoromethoxyl)benzylaminomethyl)]dihydrospectinomycin Trihydrochloride]",MIC,[1],100 to 200 µg/mL
same,MIC,Bacillus anthracis,100 to 200 µg/mL
same,MIC,[2],> 200 µg/mL
same,MIC,[3]; [24],6.3 µg/mL
same,MIC,[3]; [25],3.1 µg/mL
same,MIC,[3]; [26],1.6 µg/mL
same,MIC,[3]; [27],1.6 µg/mL
same,MIC,[3]; [28],1.6 µg/mL
same,MIC,[3]; [29],3.1 µg/mL
same,MIC,[3]; [30],6.3 µg/mL
same,MIC,[3]; [31],0.8 µg/mL
same,MIC,"[4]; H37RV, read-out: MIC H37Rv",50 µg/mL
same,MIC,[5],100 to 200 µg/mL
same,zone of inhibition at 4 µg/disc,[6],16 to 20 mm
same,MIC,[7],> 200 µg/mL
same,MIC,Listeria monocytogenes,12.5 to 25 µg/mL
same,zone of inhibition at 4 µg/disc,[8]; [32],16 mm
same,MIC,Yersinia pestis,200 µg/mL
same,MIC,[9]; [33],> 200 µg/mL
same,MIC,[9]; [34],> 200 µg/mL
same,MIC,Moraxella catarrhalis,6.3 µg/mL
same,MIC,[10],100 µg/mL
same,MIC,[11],1.6 µg/mL
same,MIC,[11]; read-out: MIC F.t.,1.6 to 3.1 µg/mL
same,MIC,[12],12.5 µg/mL
same,zone of inhibition at 4 µg/disc,[13],21 mm
same,zone of inhibition at 4 µg/disc,[14],18 to 19 mm
same,MIC,[15],25 µg/mL
same,MIC,[16]; [35],3.1 µg/mL
same,MIC,[16]; [36],3.1 µg/mL
same,MIC,E. coli K12 ΔtolC,12.5 µg/mL
same,MIC,[17],100 to 200 µg/mL
same,MIC,[18],> 200 µg/mL
same,MIC,[19],> 200 µg/mL
same,MIC,[20],25 to 50 µg/mL
same,MIC,[21],1.6 µg/mL
same,MIC,[22],100 µg/mL
same,MIC,[23],50 to 100 µg/mL
"CN[C@@H]1[C@H](O)[C@H](NC)[C@H]2O[C@@]3(O)C(=O)C[C@@H](C)O[C@H]3O[C@@H]2[C@H]1O [SPC, (2R,4aR,5aR,6S,7S,8R,9S,9aR,10aS)-4a,7,9-trihydroxy-2-methyl-6,8-bis(methylamino)decahydro-4H-benzo[b]pyrano[2,3-e][1,4]dioxin-4-one, reference compound]",MIC,[1],50 to 100 µg/mL
same,MIC,Bacillus anthracis,25 µg/mL
same,MIC,[2],> 200 µg/mL
same,MIC,"[3]; BAA1407, read-out: MIC BAA-1407",12.5 µg/mL
same,MIC,[3]; read-out: MIC D39X,12.5 µg/mL
same,MIC,[3]; read-out: MIC Daw9,12.5 µg/mL
same,MIC,[3]; read-out: MIC OVA6,12.5 µg/mL
same,MIC,[3]; read-out: MIC T4X,12.5 µg/mL
same,MIC,"[3]; S. pneumoniae A66.1x, Drug Susceptible, read-out: MIC A66.1x",6.3 µg/mL
same,MIC,"[3]; S. pneumoniae BHN97x, Drug Susceptible, read-out: MIC BHN97x",6.3 µg/mL
same,MIC,[3]; [25],25 µg/mL
same,MIC,[3]; [26],25 µg/mL
same,MIC,[3]; [28],25 µg/mL
same,MIC,[3]; [29],25 µg/mL
same,MIC,"[4]; H37RV, read-out: MIC H37Rv",100 µg/mL
same,MIC,[4]; read-out: MIC TN022,200 µg/mL
same,MIC,[4]; read-out: MIC TN026,200 µg/mL
same,MIC,[5],25 µg/mL
same,zone of inhibition at 4 µg/disc,[6],11 to 13 mm
same,MIC,[7],50 µg/mL
same,MIC,Listeria monocytogenes,25 to 50 µg/mL
same,zone of inhibition at 4 µg/disc,"[8]; Haemophilus, ATCC49247, read-out: Zone of inhibition H.i.",11 to 13 mm
same,MIC,Yersinia pestis,12.5 µg/mL
same,MIC,"[9]; ATCC25416, Burkholderia cepacia (ATCC 25416), read-out: MIC B.c.",50 to 100 µg/mL
same,MIC B.c.,"[9]; Burkholderia cepacia, Table 6",50 to 100 µg/mL
same,MIC,Moraxella catarrhalis,3.1 to 6.3 µg/mL
same,MIC,[10],25 µg/mL
same,MIC,[11]; read-out: MIC F.t.,12.5 to 25 µg/mL
same,MIC,[12],50 µg/mL
same,zone of inhibition at 4 µg/disc,[13],0 mm
same,zone of inhibition at 4 µg/disc,[14],13 to 14 mm
same,MIC,[15],25 to 50 µg/mL
same,MIC,"[16]; Streptococcus pneumoniae, read-out: MIC R6",12.5 µg/mL
same,MIC,"[16]; Streptococcus pneumoniae, read-out: MIC S. pn.",12.5 µg/mL
same,MIC,E. coli K12 ΔtolC,3.1 to 12.5 µg/mL
same,MIC,[17],> 200 µg/mL
same,MIC,[18],> 200 µg/mL
same,MIC,[19],> 200 µg/mL
same,MIC,[20],50 to 100 µg/mL
same,MIC,[21],25 µg/mL
same,MIC,[23],50 to 200 µg/mL
"CN[C@@H]1[C@H](O)[C@H](NC)[C@H]2O[C@]3(O)[C@H](O[C@@H]2[C@H]1O)O[C@H](C)C[C@@]3(O)CNCc1ccccc1OC(F)(F)F [compound 10, Trihydrochloride]",MIC,[1],200 µg/mL
same,MIC,Bacillus anthracis,200 µg/mL
same,MIC,[2],100 to 200 µg/mL
same,MIC,[3]; [24],25 µg/mL
same,MIC,[3]; [25],12.5 µg/mL
same,MIC,[3]; [26],12.5 µg/mL
same,MIC,[3]; [27],12.5 µg/mL
same,MIC,[3]; [28],12.5 µg/mL
same,MIC,[3]; [29],25 µg/mL
same,MIC,[3]; [30],6.3 µg/mL
same,MIC,[3]; [31],3.1 µg/mL
same,MIC,"[4]; H37RV, read-out: MIC H37Rv",200 µg/mL
same,MIC,[5],200 µg/mL
same,zone of inhibition at 4 µg/disc,[6],8 mm
same,MIC,[7],> 200 µg/mL
same,MIC,Listeria monocytogenes,100 µg/mL
same,zone of inhibition at 4 µg/disc,[8]; [32],0 mm
same,MIC,Yersinia pestis,200 µg/mL
same,MIC,[9]; [33],> 200 µg/mL
same,MIC,[9]; [34],> 200 µg/mL
same,MIC,Moraxella catarrhalis,50 to 100 µg/mL
same,MIC,[10],50 µg/mL
same,MIC,[11],25 µg/mL
same,MIC,[11]; read-out: MIC F.t.,25 µg/mL
same,MIC,[12],200 µg/mL
same,zone of inhibition at 4 µg/disc,[14],0 mm
same,MIC,[15],200 µg/mL
same,MIC,[16]; [35],25 µg/mL
same,MIC,[16]; [36],12.5 µg/mL
same,MIC,E. coli K12 ΔtolC,25 to 50 µg/mL
same,MIC,[17],200 µg/mL
same,MIC,[18],> 200 µg/mL
same,MIC,[19],100 to 200 µg/mL
same,MIC,[20],200 µg/mL
same,MIC,[21],25 to 50 µg/mL
same,MIC,[22],200 µg/mL
same,MIC,[23],50 µg/mL
